In patent US20160303184A1, “VANCOMYCIN-SUGAR CONJUGATES AND USES THEREOF” (JAWAHARLAL NEHRU CENTRE FOR ADVANCED SCIENTIFIC RESEARCH …, priority 2013, published 2016):
In brackets after ≈: the same amount, converted by molar mass. Entries after “also recorded” stand apart in the source; their conditions may differ.

What was measured:
[1] = test system: Vancomycin-resistant E. faecalis (VanA, ATCC 51575); assay: MIC, micro-dilution broth, VRE (VanB); type: cell-based; conditions: E. faecalis ATCC 51575; read-out: MIC VRE (VanB)
[2] = test system: methicillin-resistant S. aureus clinical isolate; assay: MIC, clinical isolate of methicillin-resistant S. aureus; type: cell-based; conditions: clinical isolate, methicillin-resistant
Method: (§1) All test compounds were assayed in a micro-dilution broth format. Stock solutions were made by serially diluting the compounds using autoclaved millipore water or broth media. The antibacterial activity of the compounds was determined against methicillin-sensitive S. aureus (MSSA), methicillin-resistant S. aureus (MRSA), vancomycin-intermediate-resistant S. aureus (VISA), vancomycin-sensitive E. faecium (VSE) and vancomycin-resistant E. faecium (VRE). Bacteria, to be tested, were grown for about 10 h in the suitable media, MSSA, MRSA and VISA were grown in yeast-dextrose broth (about 1 g of beef extract, about 2 g of yeast extract, about 5 g of peptone and about 5 g of NaCl in about 1000 mL of sterile distilled water (pH-7)). For solid media, about 5% agar was used along with above mentioned composition. VSE and VRE were cultured in brain heart infusion broth (Himedia). The bacterial samples were freeze dried and stored at −80° C. About 5 μL of these stocks were added to about 3 mL of the nutrient broth and the culture was grown for about 6 h at about 37° C. prior to the experiments. This 6 h grown culture gives about 10^9 cfu/mL and this was determined by spread plating method. The 6 h grown culture was diluted to give effective cell concentration of about 10^5 cfu/mL which was then used for determining MIC. Compounds were serially diluted, in sterile water (2 fold dilution is employed) in a way that the working concentration was about 10 μM for MSSA, MRSA, and VSE while for VRE and VISA it was about 100 μM. About 50 μL of these serial dilutions were added to the wells of 96 well plate followed by the addition of about 150 μL of bacterial solution. The plates were then incubated at about 37° C., 150 rpm in the incubator and O.D at 600 nm was recorded at an interval of about 10 h and 24 h using TECAN (Infinite series, M200 pro) Plate Reader. Each concentration had triplicate values and the whole experiment was done at least twice and the MIC value was determined by taking the average of triplicate. O. D. values for each concentration and plotting it against concentration. The data was then subjected to sigmoidal fitting. From the curve the MIC value was determined, as the point in the curve where the O. D. was similar to that of control having no bacteria.

[3] = test system: Vancomycin intermediate resistant S. aureus; assay: MIC, micro-dilution broth, VISA; type: cell-based; conditions: read-out: MIC VISA
Method: as §1

[4] = test system: VISA; assay: Ex-vivo whole blood assay; type: cell-based, S. aureus; conditions: 3 h incubation in 90% human whole blood
Method: Ex-vivo whole blood assay was performed to compare the abilities of these compounds to retain activity in complex media. To 30 μL of VISA in saline (0.9% NaCl; 10^6 CFU/mL) 10 μL of test compounds (vancomycin and compound 7) and 270 μL of fresh human whole blood were added and incubated, at 37° C. for about 3 h. After the incubation period, antibacterial activity was determined by finding the bacterial titer in the infected blood.

[5] = test system: methicillin-resistant S. epidermidis clinical isolate; assay: MIC, clinical isolate of methicillin-resistant S. epidermidis; type: cell-based; conditions: clinical isolate, methicillin-resistant
[6] = test system: methicillin-resistant S. haemolyticus clinical isolate; assay: MIC, clinical isolate of methicillin-resistant S. haemolyticus; type: cell-based; conditions: clinical isolate, methicillin-resistant; read-out: MIC S. haemolyticus
[7] = test system: Vancomycin-sensitive E. faecium (ATCC 19634); assay: MIC, micro-dilution broth, VSE; type: cell-based; conditions: ATCC 19634; read-out: MIC VSE
Method: as §1

[8] = test system: methicillin-resistant vancomycin-intermediate S. aureus (MR-VISA); assay: Time-kill assay; type: cell-based; conditions: 2 μM and 4 μM
Method: The bactericidal activity was assessed by the kinetics or the rate at which it affects the killing action of the compound. Briefly methicillin-resistant vancomycin-intermediate S. aureus (MR-VISA) grown in Yeast-Dextrose broth. A starting inoculum of 1.6×10^8 CFU/ml was used as initial bacterial colony count. Vancomycin and compound 7 having final concentrations of 2 μM and 4 μM were inoculated with MR-VISA suspensions having starting inocula of 1.6×10^8 CFU/ml. Bacterial suspension containing specified concentrations of the compound along with negative control (which contains only 0.9% Saline) was incubated at 37° C. with shaking. Aliquots (20 μl) were removed from the cultures at different time intervals and were serially diluted 10-fold in 0.9% saline and plated onto sterile Yeast-Dextrose agar medium. The number of viable cells was determined by plating the 10-fold serial dilution of each sample onto Yeast-dextrose agar medium. Plates were then incubated for 24 h at 37° C., CFU was counted and the total bacterial log 10 CFU/ml was determined.

[9] = test system: Methicillin-resistant S. aureus (ATCC 33591); assay: MIC, micro-dilution broth, MRSA; type: cell-based; conditions: ATCC 33591; read-out: MIC MRSA
Method: as §1

[10] = test system: VISA; assay: In-vivo time dependent whole blood assay; design: species or system S. aureus; conditions: 12 mg/kg single i.v., CD-1 mice, VISA
Method: The derivative 7 and vancomycin were administered in a single intravenous injection (0.2 mL saline) to normal pathogen-free, female CD-1 mice. Doses of 12 mg kg^−1 were administered to three mice per data point. At the specified time-points (0, 3, 6, 12, 24 and 48 h) mice were euthanized (using ether), blood samples were collected from the ocular puncture. 60 μL of VISA in saline (0.9% NaCl; 10^6 CFU/mL) was added to 540 μL of whole blood which was drawn from the mice and incubated at 37° C. for 3 h. After the incubation period, antibacterial activity was determined by finding the bacterial titer in the infected blood.

[11] = test system: Vancomycin-resistant E. faecium (VanA, ATCC 51559); assay: MIC, micro-dilution broth, VRE (VanA); type: cell-based; conditions: E. faecium ATCC 51559; read-out: MIC VRE (VanA)
Method: as §1

[12] = test system: Methicillin-sensitive S. aureus (MTCC 737); assay: MIC, micro-dilution broth, MSSA; type: cell-based; conditions: MTCC 737; read-out: MIC MSSA
Method: as §1

In the case of CN[C@H](CC(C)C)C(=O)N[C@H]1C(=O)N[C@@H](CC(N)=O)C(=O)N[C@H]2C(=O)N[C@H]3C(=O)N[C@H](C(=O)N[C@H](C(=O)O)c4cc(O)cc(O)c4-c4cc3ccc4O)[C@H](O)c3ccc(c(Cl)c3)Oc3cc2cc(c3O[C@@H]2O[C@H](CO)[C@@H](O)[C@H](O)[C@H]2O[C@H]2C[C@](C)(N)[C@H](O)[C@H](C)O2)Oc2ccc(cc2Cl)[C@H]1O [Vancomycin], the MIC [1] is reported as 250 µM (≈ 362 µg/mL), the “MIC S. aureus” value [2] is reported as 0.7 µM (≈ 1.01 µg/mL) and the MIC [3] is reported as 13.0 µM (≈ 18.8 µg/mL). The “bactericidal activity in whole blood” value [4] was “slow killing”, the “MIC S. epidermidis” value [5] was 0.9 µM (≈ 1.3 µg/mL) and the MIC [6] was 1.4 µM (≈ 2.03 µg/mL). For the same compound, the MIC [7] was 0.6 µM (≈ 0.87 µg/mL), the killing kinetics [8] was “relatively slow killing or bacteriostatic effect” and the MIC [9] was 0.63 µM (≈ 0.913 µg/mL). The “antibacterial activity of blood drawn at 3 h” value [10] was “did not show any activity; also recorded: nominal activity”, the “antibacterial activity of blood drawn at 6 h” value [10] was “did not show any activity” and the MIC [11] was over 700 µM. It also gave an MIC [12] of 0.63 µM (≈ 0.913 µg/mL).
